# Results published in PubChem BioAssay AID686957 (The Scripps Research Institute Molecular Screening Center, 2013).
# The source made the active and inactive calls. The rule behind the calls is not given here.
# Target: T-cell receptor (TCR)-CD3 interaction, human (TCR alpha chain TRAV4)
# Experiment: IC50 for blocking TCR-CD3 binding – biochemical, fluorescence, TAMRA-labeled TCR probe, dose response (AID 686957)
row,Compound,IC50
1,O=C(N/N=C/c1cn(Cc2cccc(F)c2)c2ccccc12)c1cc(O)cc(O)c1,> 94.1 µM (inactive)
2,O=C(N/N=C/c1cc(Br)cc(Cl)c1O)c1ccc2c(c1)OCO2,> 94.1 µM (inactive)
3,CNC(=S)N/N=C/c1cc(Br)cc(Br)c1O,> 94.1 µM (inactive)
4,O=C(CSc1nnc(-c2ccccc2)n1Cc1ccccc1)NNC(=O)c1ccccc1O,> 94.1 µM (inactive)
5,C/C(=N/NC(=O)c1cc(O)c(O)c(O)c1)c1ccc([N+](=O)[O-])cc1,> 94.1 µM (inactive)
6,O=C1C=C(NCCc2cc(Br)c(O)c(Br)c2)C(=O)c2ncccc21,inactive
7,O=C(N/N=C/c1c(O)n(Cc2ccco2)c(=O)[nH]c1=O)c1ccccc1,> 94.2 µM (inactive)
8,CC(=O)c1ccc(NC(=O)CN2C(=O)/C(=C/C(C)=C/c3ccccc3)SC2=S)cc1,> 94.1 µM (inactive)
9,O=C(N/N=C/c1cc(Cl)cc([N+](=O)[O-])c1O)c1ccc2c(c1)OCO2,> 94.1 µM (inactive)
10,Cc1onc(-c2ccccc2)c1C(=O)NN=Cc1cc(Cl)cc(Cl)c1O,> 94 µM (inactive)
11,O=C1C=C(O)c2c(O)cc(O)c(O)c2C1=O,> 94.1 µM (inactive)
12,Cc1cc(C(=O)N/N=C/c2cc(Cl)cc([N+](=O)[O-])c2O)c2ccccc2n1,> 94.1 µM (inactive)
13,Nc1c(C(=O)NCC2CCCO2)sc2nc3c(c(-c4ccco4)c12)CC/C3=C\c1ccco1 (configuration not stated),inactive
14,CCOc1ccc(Nc2ccc(N)c(S(=O)(=O)O)c2)cc1,> 94.1 µM (inactive)
15,CNC(=S)NNC(=O)c1cccn(Cc2ccc(Cl)c(Cl)c2)c1=O,> 94 µM (inactive)
16,Cc1ccc2nc(-c3ccc(O)c(O)c3)cn2c1,> 94.1 µM (inactive)
17,O=C(NNC(=O)c1cc2ccccc2cc1O)Nc1ccc(F)cc1F,> 94.1 µM (inactive)
18,O=C(CNC(=O)c1ccccc1F)NNC(=O)c1ccccc1O,> 94.1 µM (inactive)
19,O=C(CCc1ccc(S(=O)(=O)N2CCOCC2)cc1)N/N=C/c1ccc(O)c(O)c1O,> 94.1 µM (inactive)
20,O=C(NNC(=S)NC(=O)c1cccc([N+](=O)[O-])c1)c1ccc(O)cc1,> 94 µM (inactive)
21,Oc1ccc(-c2cn3c(n2)SCC3)cc1O,inactive
22,COc1ccccc1C(=O)NNC(=O)c1ccc2ccccc2c1O,> 94.2 µM (inactive)
23,O=C(N/N=C/c1ccc(O)c(O)c1)N/N=C/c1ccc(O)c(O)c1,1.03 µM
24,COc1ccc(/C=N/NC(=O)c2cc(O)c(O)c(O)c2)cc1Cn1cc([N+](=O)[O-])cn1,3.84 µM

row,Compound,IC50
1,COc1ccc(C(=O)NNC(=S)NC(=O)c2ccc(Br)o2)cc1OC,> 94.1 µM (inactive)
2,Cc1ccc(O)c(-c2cc(C(=O)Nc3ccc(S(=O)(=O)Nc4nccc(C)n4)cc3)[nH]n2)c1,> 94.1 µM (inactive)
3,CN=c1scc(C)n1/N=C/c1ccc(O)c(O)c1O,inactive
4,O=c1cc(-c2ccc(O)c(O)c2)oc2c1ccc1ccccc12,6.25 µM
5,Cc1ccc(OCC(=O)c2c(N)n(C)c(=O)n(C)c2=O)c([N+](=O)[O-])n1,inactive
6,Cc1ccn2cc(-c3ccc(O)c(O)c3)nc2c1,> 94.1 µM (inactive)
7,COC(=O)c1cc(O)c(O)c(O)c1,> 94.3 µM (inactive)
8,O=c1c2c(-c3ccc(Cl)cc3)csc2ncn1/N=C/c1cccc([N+](=O)[O-])c1O,> 94.1 µM (inactive)
9,C/C(=N\NC(=O)c1ccc(-c2ccccc2)cc1)C1C(=O)c2ccccc2C1=O,> 94.1 µM (inactive)
10,COc1ccc(C(=O)NNC(=S)NC(=O)c2cccnc2)cc1,> 94.1 µM (inactive)
11,O=C(NNC(=O)c1ccc2ccccc2c1O)c1cccs1,> 94.1 µM (inactive)
12,CCc1ccccc1NC(=O)NNC(=O)c1ccc2ccccc2c1O,> 94.1 µM (inactive)
13,Cc1cc(=O)oc2cc(OCC(=O)N/N=C/c3cc([N+](=O)[O-])ccc3O)ccc12,> 94.1 µM (inactive)
14,N#C/C(=C\c1ccc(O)c(O)c1)C(=O)Nc1cccc2ncccc12,8.85 µM
15,O=C(Cc1ccccc1)NNC(=S)NC(=O)c1cccnc1,> 94.1 µM (inactive)
16,COc1ccc(NS(=O)(=O)c2cc(NC(=O)/C=C/c3cc(OC)c(OC)c(OC)c3)ccc2N2CCCCC2)cc1,> 94.1 µM (inactive)
17,CCOc1ccc(C(=O)CCC(=O)NNC(=O)c2ccccc2O)cc1,> 94.1 µM (inactive)
18,C/C(=N\OCc1nc2ccccc2c(=O)n1/N=C/c1cc(C)cc([N+](=O)[O-])c1O)c1ccccc1,> 94.1 µM (inactive)
19,Cc1c(NC(=S)N/N=C/c2cc([N+](=O)[O-])ccc2O)c(=O)n(-c2ccccc2)n1C,> 94.1 µM (inactive)
20,O=C(N/N=C/c1c(O)n(Cc2ccco2)c(=O)[nH]c1=O)c1ccccc1O,> 94 µM (inactive)
21,CCN(CC(=O)Nc1c(F)cccc1F)C(=O)/C=C/c1ccc2ccccc2n1,> 94.1 µM (inactive)
22,O=C(NNC(=O)c1ccc2ccccc2c1O)Nc1ccc(F)cc1,> 94.1 µM (inactive)
23,COC(=O)Cn1c(=NC(=O)c2cc(-c3cccs3)nc3ccccc23)sc2cc(S(N)(=O)=O)ccc21,> 10.5 µM (inactive)
